Source: patent US20140255392A1 (BAYER INTELLECTUAL PROPERTY GMBH, priority 2011, published 2014)

Target: T1, human kinase Mps-1 (Homo sapiens, UniProt P33981)
T1 construct: N-terminally GST-tagged human full length recombinant Mps-1 kinase; GST (N); purchased Invitrogen, Karslruhe, Germany PV4071
T1 sequence (P33981 1-857): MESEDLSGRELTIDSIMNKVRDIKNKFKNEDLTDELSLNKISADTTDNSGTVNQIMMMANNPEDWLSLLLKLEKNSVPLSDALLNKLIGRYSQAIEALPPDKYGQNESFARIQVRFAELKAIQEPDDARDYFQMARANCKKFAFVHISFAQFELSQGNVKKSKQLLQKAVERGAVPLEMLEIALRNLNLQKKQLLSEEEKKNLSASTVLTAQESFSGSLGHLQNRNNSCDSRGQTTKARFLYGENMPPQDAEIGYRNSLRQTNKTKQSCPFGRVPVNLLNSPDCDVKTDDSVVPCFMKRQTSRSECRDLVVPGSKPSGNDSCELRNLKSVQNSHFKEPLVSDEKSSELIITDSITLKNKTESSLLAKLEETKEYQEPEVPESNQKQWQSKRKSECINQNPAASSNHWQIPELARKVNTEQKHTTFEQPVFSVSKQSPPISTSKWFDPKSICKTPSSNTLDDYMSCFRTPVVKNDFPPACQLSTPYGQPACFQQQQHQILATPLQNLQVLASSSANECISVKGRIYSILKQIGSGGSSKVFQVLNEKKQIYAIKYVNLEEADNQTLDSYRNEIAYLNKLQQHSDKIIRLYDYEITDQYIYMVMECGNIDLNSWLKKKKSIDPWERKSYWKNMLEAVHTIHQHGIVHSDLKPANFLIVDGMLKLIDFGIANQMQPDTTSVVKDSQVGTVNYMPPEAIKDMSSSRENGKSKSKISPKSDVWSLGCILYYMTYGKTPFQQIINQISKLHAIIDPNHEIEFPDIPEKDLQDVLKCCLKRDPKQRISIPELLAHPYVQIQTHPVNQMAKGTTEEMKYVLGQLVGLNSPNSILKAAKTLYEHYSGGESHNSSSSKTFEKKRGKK
Assay: Mps-1 kinase assay (TR-FRET)
Type: biochemical
Details: N-terminally GST-tagged human full length recombinant Mps-1; 10 μM ATP; 1 μM peptide substrate; 60 min at 22° C.
How it was run: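 GST-Mps-1 (full length, N-term tag) ~1 nM final, linear-range adjusted per lot; biotinylated peptide substrate. Detection: Eu-anti-pSer/Thr donor → SA-XLent acceptor TR-FRET, 1 h, 22° C. Inhibition of kinase activity.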

CCNC(=O)c1ccc(-c2cnc3c(NCCC(F)(F)F)cc(Oc4ccc(OC)c(F)c4)cn23)cc1C [Example 107, N-ethyl-4-{6-(3-fluoro-4-methoxyphenoxy)-8-[(3,3,3-trifluoropropyl)amino]imidazo[1,2-a]pyridin-3-yl}-2-methylbenzamide]
IC50: 1.8 nM

Cc1cc(-c2cnc3c(NCCC(F)(F)F)cc(Oc4ccc(OCc5ccccc5)cc4)cn23)ccc1C(=O)NC1CC1 [Example 109, 4-{6-[4-(benzyloxy)phenoxy]-8-[(3,3,3-trifluoropropyl)amino]imidazo[1,2-a]pyridin-3-yl}-N-cyclopropyl-2-methylbenzamide]
IC50: 17.8 nM

Cc1cc(-c2cnc3c(NCCC(F)(F)F)cc(Oc4ccc(O)cc4)cn23)ccc1C(=O)NC1CC1 [Example 110, N-cyclopropyl-4-{6-(4-hydroxyphenoxy)-8-[(3,3,3-trifluoropropyl)amino]imidazo[1,2-a]pyridin-3-yl}-2-methylbenzamide]
IC50: 0.6 nM

C/C=C/c1cc(NCCC(F)(F)F)c2ncc(-c3ccc(C(=O)NC4CC4)c(C)c3)n2c1 [Example 111, N-cyclopropyl-2-methyl-4-{6-[(1E)-prop-1-en-1-yl]-8-[(3,3,3-trifluoropropyl)amino]imidazo[1,2-a]pyridin-3-yl}benzamide]
IC50: 5.8 nM

C/C=C/c1cc(NCCC(F)(F)F)c2ncc(-c3ccc(C(=O)NC)c(C)c3)n2c1 [Example 112, N,2-dimethyl-4-{6-[(1E)-prop-1-en-1-yl]-8-[(3,3,3-trifluoropropyl)amino]imidazo[1,2-a]pyridin-3-yl}benzamide]
IC50: 21.8 nM

C/C=C/c1cc(NCCC(F)(F)F)c2ncc(-c3ccc(C(=O)NCC)c(C)c3)n2c1 [Example 113, N-ethyl-2-methyl-4-{6-[(1E)-prop-1-en-1-yl]-8-[(3,3,3-trifluoropropyl)amino]imidazo[1,2-a]pyridin-3-yl}benzamide]
IC50: 45.1 nM

C/C=C/c1cc(NCCC(F)(F)F)c2ncc(-c3ccc(C(=O)NC4(C)CC4)c(C)c3)n2c1 [Example 114, 2-Methyl-N-(1-methylcyclopropyl)-4-{6-[(1E)-prop-1-en-1-yl]-8-[(3,3,3-trifluoropropyl)amino]imidazo[1,2-a]pyridin-3-yl}benzamide]
IC50: 75.3 nM

C/C=C/c1cc(NCCC(F)(F)F)c2ncc(-c3ccc(C(=O)NC4(C#N)CC4)c(C)c3)n2c1 [Example 115, N-(1-cyanocyclopropyl)-2-methyl-4-{6-[(1E)-prop-1-en-1-yl]-8-[(3,3,3-trifluoropropyl)amino]imidazo[1,2-a]pyridin-3-yl}benzamide]
IC50: 59.4 nM

CNC(=O)c1ccc(-c2cnc3c(NCCC(F)(F)F)cc(/C=C\CO)cn23)cc1C [Example 119, 4-{6-[(1Z)-3-hydroxyprop-1-en-1-yl]-8-[(3,3,3-trifluoropropyl)amino]imidazo[1,2-a]pyridin-3-yl}-N,2-dimethylbenzamide]
IC50: 54.7 nM

CCNC(=O)c1ccc(-c2cnc3c(NCCC(F)(F)F)cc(/C=C\CO)cn23)cc1C [Example 120, N-ethyl-4-{6-[(12)-3-hydroxyprop-1-en-1-yl]-8-[(3,3,3-trifluoropropyl)amino]imidazo[1,2-a]pyridin-3-yl}-2-methylbenzamide]
IC50: 42.2 nM

CNC(=O)c1ccc(-c2cnc3c(NCC4CCOCC4)cc(Oc4ccc(OC)c(F)c4)cn23)cc1C [Example 121, 4-{6-(3-Fluoro-4-methoxyphenoxy)-8-[(tetrahydro-2H-pyran-4-ylmethyl)amino]imidazo[1,2-a]pyridin-3-yl}-N,2-dimethylbenzamide]
IC50: 1.5 nM

CCNC(=O)c1ccc(-c2cnc3c(NCC4CCOCC4)cc(Oc4ccc(OC)c(F)c4)cn23)cc1C [Example 122, N-ethyl-4-{6-(3-fluoro-4-methoxyphenoxy)-8-[(tetrahydro-2H-pyran-4-ylmethyl)amino]imidazo[1,2-a]pyridin-3-yl}-2-methylbenzamide]
IC50: 1.9 nM

COc1ccc(Oc2cc(NCC3CCOCC3)c3ncc(-c4ccc(C(=O)NC5CC5)c(C)c4)n3c2)cc1F [Example 123, N-cyclopropyl-4-{6-(3-fluoro-4-methoxyphenoxy)-8-[(tetrahydro-2H-pyran-4-ylmethyl)amino]imidazo[1,2-a]pyridin-3-yl}-2-methylbenzamide]
IC50: 0.8 nM

CNC(=O)c1ccc(-c2cnc3c(NCCC(F)(F)F)cc(CCCO)cn23)cc1C [Example 126, 4-{6-(3-hydroxypropyl)-8-[(3,3,3-trifluoropropyl)amino]imidazo[1,2-a]pyridin-3-yl}-N,2-dimethylbenzamide]
IC50: 146 nM

CCNC(=O)c1ccc(-c2cnc3c(NCCC(F)(F)F)cc(CCCO)cn23)cc1C [Example 127, N-ethyl-4-{6-(3-hydroxypropyl)-8-[(3,3,3-trifluoropropyl)amino]imidazo[1,2-a]pyridin-3-yl}-2-methylbenzamide]
IC50: 62.5 nM

Cc1cc(-c2cnc3c(NCCC(F)(F)F)cc(CCCO)cn23)ccc1C(=O)NC1CC1 [Example 128, N-cyclopropyl-4-{6-(3-hydroxypropyl)-8-[(3,3,3-trifluoropropyl)amino]imidazo[1,2-a]pyridin-3-yl}-2-methylbenzamide]
IC50: 9.5 nM

Cc1cc(-c2cnc3c(NCCC(F)(F)F)cc(Oc4ccc(O)c(F)c4)cn23)ccc1C(=O)NC1CC1 [Example 129, N-cyclopropyl-4-{6-(3-fluoro-4-hydroxyphenoxy)-8-[(3,3,3-trifluoropropyl)amino]imidazo[1,2-a]pyridin-3-yl}-2-methylbenzamide]
IC50: 0.5 nM

CNC(=O)c1ccc(-c2cnc3c(NCCC(F)(F)F)cc(Oc4ccc(O)c(F)c4)cn23)cc1C [Example 130, 4-{6-(3-Fluoro-4-hydroxyphenoxy)-8-[(3,3,3-trifluoropropyl)amino]imidazo[1,2-a]pyridin-3-yl}-N,2-dimethylbenzamide]
IC50: 0.9 nM

CCNC(=O)c1ccc(-c2cnc3c(NCCC(F)(F)F)cc(Oc4ccc(O)c(F)c4)cn23)cc1C [Example 131, N-ethyl-4-{6-(3-fluoro-4-hydroxyphenoxy)-8-[(3,3,3-trifluoropropyl)amino]imidazo[1,2-a]pyridin-3-yl}-2-methylbenzamide]
IC50: 1.4 nM

Cc1cc(-c2cnc3c(NCCC(F)(F)F)cc(-c4ccccc4O)cn23)ccc1C(=O)NC1CC1 [Example 132, N-cyclopropyl-4-{6-(2-hydroxyphenyl)-8-[(3,3,3-trifluoropropyl)amino]imidazo[1,2-a]pyridin-3-yl}-2-methylbenzamide]
IC50: 1.1 nM

CNC(=O)c1ccc(-c2cnc3c(NCCC(F)(F)F)cc(-c4ccccc4O)cn23)cc1C [Example 133, 4-{6-(2-Hydroxyphenyl)-8-[(3,3,3-trifluoropropyl)amino]imidazo[1,2-a]pyridin-3-yl}-N,2-dimethylbenzamide]
IC50: 12.6 nM

CCNC(=O)c1ccc(-c2cnc3c(NCCC(F)(F)F)cc(-c4ccccc4O)cn23)cc1C [Example 134, N-ethyl-4-{6-(2-hydroxyphenyl)-8-[(3,3,3-trifluoropropyl)amino]imidazo[1,2-a]pyridin-3-yl}-2-methylbenzamide]
IC50: 13.7 nM

Cc1cc(-c2cnc3c(NCCC(F)(F)F)cc(Oc4cccc(O)c4)cn23)ccc1C(=O)NC1CC1 [Example 136, N-cyclopropyl-4-{6-(3-hydroxyphenoxy)-8-[(3,3,3-trifluoropropyl)amino]imidazo[1,2-a]pyridin-3-yl}-2-methylbenzamide]
IC50: 0.5 nM
